Here are results for 25 compounds from ChEMBL document CHEMBL4414578, “Design and synthesis of pentacyclic triterpene conjugates and their use in medicinal research” (Eur J Med Chem, 2019).

Series [1] has as its system P815. Put plainly: Cytotoxicity against mouse P815 cells assessed as reduction in cell viability after 48 hrs by MTT assay. The note with it: P815, 48 h. In kind it is functional, cell-based. (In general: Tetrazolium assays rely on reduction of a dye to a coloured formazan, in cell work by metabolically active cells.)
Series [2] relates to Ehrlich. The experiment in a line: Cytotoxicity against mouse Ehrlich carcinoma cells assessed as reduction in cell viability after 48 hrs by MTT assay. In kind it is functional, cell-based.
For series [3], the system named is Plasmodium falciparum. Put plainly: Antimalarial activity against chloroquine-sensitive Plasmodium falciparum 3D7 by flow cytometry analysis. In kind it is functional, organism-based. (In general: Flow cytometry measures light scatter and fluorescence of single cells or particles in a stream.)
In series [4] the test system is HEK-293T. The experiment in a line: Cytotoxicity against HEK293T cells assessed as reduction in cell viability. In kind it is cell-based. To be noted: Homo sapiens.
The nature of series [5]: Selectivity index, ratio of IC50 for HEK293T cells tobIC50 for chloroquine-sensitive Plasmodium falciparum 3D7. Type of series: toxicity. The note with it: human, read-out: Ratio IC50.
For series [6], the system named is DU-145. Put plainly: Cytotoxicity against human DU145 cells assessed as reduction in cell viability after 72 hrs by MTT assay. The note with it: DU-145, 72 h. In kind it is functional, cell-based.
For series [7], the system named is L132. Put plainly: Cytotoxicity against human L-132 cells assessed as reduction in cell viability after 72 hrs by MTT assay. To be noted: L132, 72 h. Type of series: functional, cell-based.
Series [8] relates to PA-1. The experiment in a line: Cytotoxicity against human PA1 cells assessed as reduction in cell viability after 72 hrs by MTT assay. Type of series: functional, cell-based. To be noted: PA-1, 72 h.
Series [9] has as its system HT-29. Put plainly: Cytotoxicity against human HT-29 cells assessed as reduction in cell viability after 72 hrs by MTT assay. In kind it is functional, cell-based. The note with it: HT-29, 72 h.
Series [10] concerns Human immunodeficiency virus 1. The experiment in a line: Antiviral activity against HIV-1. In kind it is functional, organism-based.
Series [11] deals with Leishmania infantum. The experiment in a line: Antileishmanial activity against Leishmania infantum promastigotes after 2 to 24 hrs by Giemsa staining-based microscopic analysis. In kind it is functional, organism-based.
Series [12] deals with Human immunodeficiency virus 1. The experiment in a line: Antiviral activity against HIV-1 3B. Type of series: functional, organism-based. The note with it: Human immunodeficiency virus 1, 3B.
Series [13] has as its system Human immunodeficiency virus 1. The experiment in a line: Antiviral activity against HIV-1 NL4-3 infected in human MT-4 cells. In kind it is functional, organism-based. The note with it: Human immunodeficiency virus 1, NL4-3, MT4.
Series [14] has as its system A549. The experiment in a line: Antitumor activity against human A549 cells by SRB assay. In kind it is functional, cell-based. On the technique in general: In SRB staining, fixed cells bind dye roughly in proportion to their protein.
For series [15], the system named is A2780. Put plainly: Antitumor activity against human A2780 cells by SRB assay. In kind it is functional, cell-based.
Series [16] concerns 8505C. The experiment in a line: Antitumor activity against human 8505C cells by SRB assay. Type of series: functional, cell-based.
In series [17] the test system is 518A2. Put plainly: Antitumor activity against human 518A2 cells by SRB assay. Type of series: functional, cell-based.
The test system of series [18] is MCF7. The experiment in a line: Antitumor activity against human MCF7 cells by SRB assay. In kind it is functional, cell-based.
Series [19] deals with CCRF-CEM. The experiment in a line: Cytotoxicity against human CCRF-CEM cells assessed as reduction in cell viability. In kind it is functional, cell-based.

As usually defined, the IC50 is the concentration that inhibits the measured activity by half. `COC(=O)[C@]12CC[C@@H](C(C)C)[C@@H]1[C@H]1CC[C@@H]3[C@@]4(C)CC(CCC[P+](c5ccccc5)(c5ccccc5)c5ccccc5)[C@@H](OC(C)=O)C(C)(C)[C@@H]4CC[C@@]3(C)[C@]1(C)CC2` (some centres undefined): the IC50 in [1] and in [2] was 1100 to 4700 nM throughout.

In the case of `C=C(C)[C@@H]1CC[C@]2(C(=O)NCCCN3CCN(CCCN)CC3)CC[C@]3(C)[C@H](CC[C@@H]4[C@@]5(C)CC[C@H](OC(C)=O)C(C)(C)[C@@H]5CC[C@]43C)[C@@H]12`, the IC50 in series [3] was determined as 220 nM; in [4] it was 4000 nM. Also, the selectivity ratio in series [5] worked out at 23.

As to `C=C(C)[C@@H]1CC[C@]2(C(=O)O)CC[C@]3(C)[C@H](CC[C@@H]4[C@@]5(C)CC/C(=N\NC(C)=O)C(C)(C)[C@@H]5CC[C@]43C)[C@@H]12`, the IC50 in [6], in series [7], in [8] and in series [9] was 1000 to 4000 nM in each case.

Regarding `C=C(C)[C@@H]1CC[C@]2(C(=O)O)CC[C@]3(C)[C@H](CC[C@@H]4[C@@]5(C)CC/C(=N\Nc6ccc(F)cc6)C(C)(C)[C@@H]5CC[C@]43C)[C@@H]12`, the IC50 in [6], in [7], in [8] and in series [9] was 1000 to 4000 nM each time.

The compound `C=C(CO)[C@@H]1CC[C@]2(C(=O)OCCCCCCCCCCC(=O)O)CC[C@]3(C)[C@H](CC[C@@H]4[C@@]5(C)CC[C@H](O)C(C)(C)[C@@H]5CC[C@]43C)[C@@H]12` came in with an IC50 in series [10] of 50 nM.

The compound `C=C(C)[C@@H]1CC[C@]2(C(=O)n3ccnc3)CC[C@]3(C)[C@H](CC[C@@H]4[C@@]5(C)C=C(OC(=O)n6ccnc6)C(=O)C(C)(C)[C@@H]5CC[C@]43C)[C@@H]12` registered an IC50 in [11] of 26000 nM.

Turning to `C=C(CC=O)[C@@H]1CC[C@]2(COC(=O)n3ccnc3)CC[C@]3(C)[C@H](CC[C@@H]4[C@@]5(C)CC[C@H](O)C(C)(C)[C@@H]5CC[C@]43C)[C@@H]12`, the IC50 in [11] is 51000 nM.

With `C=C(C)[C@@H]1CC[C@]2(C(=O)O)CC[C@]3(C)[C@H](CC[C@@H]4[C@@]5(C)CC/C(=N\Nc6c(Cl)cc(Cl)cc6Cl)C(C)(C)[C@@H]5CC[C@]43C)[C@@H]12`, the IC50 in series [6], in series [7], in series [8] and in series [9] was 1000 to 4000 nM in each case.

As usually defined, the EC50 is the midpoint of the concentration-response curve. A higher EC50 goes with lower potency in that assay. `CCCCCCCCCCCCCCCCOP(=O)([O-])OCC[N+](C)(C)C` [MILTEFOSINE] had an EC50 in [12] of 10 to 330 nM. This compound also gave an IC50 in series [11] of 6000 nM.

On to `C=C(C)[C@@H]1CC[C@]2(C(=O)OCc3cn([C@H]4C[C@H](n5cc(C)c(=O)[nH]c5=O)O[C@@H]4CO)nn3)CC[C@]3(C)[C@H](CC[C@@H]4[C@@]5(C)CC[C@H](OC(=O)CC(C)(C)C(=O)O)C(C)(C)[C@@H]5CC[C@]43C)[C@@H]12`, for which the EC50 in series [13] was 100 nM.

As to `C=C(C)[C@@H]1CC[C@]2(C(=O)O)CC[C@]3(C)[C@H](CC[C@@H]4[C@@]5(C)CC/C(=N\Nc6ccccc6)C(C)(C)[C@@H]5CC[C@]43C)[C@@H]12`, the IC50 in series [6], in series [7], in [8] and in series [9] was 1000 to 4000 nM throughout.

`COC(=O)[C@]12CC[C@@H](C(C)C)[C@@H]1[C@H]1CC[C@@H]3[C@@]4(C)CC(CCC[P+](c5ccccc5)(c5ccccc5)c5ccccc5)[C@H](OC(C)=O)C(C)(C)[C@@H]4CC[C@@]3(C)[C@]1(C)CC2` (some centres undefined): the IC50 in [1] and in series [2] was 1100 to 4700 nM throughout.

`C=C(C)[C@@H]1CC[C@]2(C(=O)NCCNCCN)CC[C@]3(C)[C@H](CC[C@@H]4[C@@]5(C)CC[C@H](OC(C)=O)C(C)(C)[C@@H]5CC[C@]43C)[C@@H]12`: the IC50 in series [14], in series [15], in [16], in series [17] and in [18] was 1400 to 2240 nM throughout.

For the compound `Cc1cn([C@H]2C[C@H](N=[N+]=[N-])[C@@H](CO)O2)c(=O)[nH]c1=O` [ZIDOVUDINE], the response in series [13] was half-maximal at 100 nM (EC50).

Turning to `C=C(C)[C@@H]1CC[C@]2(C(=O)NCCN)CC[C@]3(C)[C@H](CC[C@@H]4[C@@]5(C)CC[C@H](O)C(C)(C)[C@@H]5CC[C@]43C)[C@@H]12`, the IC50 in [19] is 700 nM.

`C=C(C)[C@@H]1CC[C@]2(C(=O)O)CC[C@]3(C)[C@H](CC[C@@H]4[C@@]5(C)CC[C@H](O)C(C)(C)[C@@H]5CC[C@]43C)[C@@H]12` [BETULINIC ACID]: the IC50 in series [1] is 41000 nM; in series [2], 54000 nM; in series [14], 330 to 1340 nM; in [15], 330 to 1340 nM; in [16] it was 330 to 1340 nM; in series [17], 330 to 1340 nM. In addition, the IC50 in series [18] is 330 to 1340 nM.

Regarding `CC1(C)CC[C@]2(C(=O)O)CC[C@]3(C)C(=CC[C@@H]4[C@@]5(C)CC[C@H](O)C(C)(C)[C@@H]5CC[C@]43C)[C@@H]2C1` [OLEANOLIC_ACID], the EC50 in series [12] was 10 to 330 nM.

With `C=C(/C=N/N=C/c1ccccn1)[C@@H]1CC[C@]2(C(=O)O)CC[C@]3(C)[C@H](CC[C@@H]4[C@@]5(C)CC[C@H](O)C(C)(C)[C@@H]5CC[C@]43C)[C@@H]12`, the IC50 in series [19] was 3800 to 4800 nM.

With `CC(=O)O[C@H]1C(CCC[P+](c2ccccc2)(c2ccccc2)c2ccccc2)C[C@]2(C)[C@H]3CC[C@@H]4[C@H]5[C@H](C(C)C)CC[C@]5(C(=O)O)CC[C@@]4(C)[C@]3(C)CC[C@H]2C1(C)C` (some centres undefined), the IC50 in series [1] and in series [2] was 1100 to 4700 nM in each case.

In series [10], `C=C(C)[C@@H]1CC[C@]2(C(=O)OCCCCCCCC(=O)N[C@@H](CC(C)C)[C@@H](O)CC(=O)O)CC[C@]3(C)[C@H](CC[C@@H]4[C@@]5(C)CC[C@H](O)C(C)(C)[C@@H]5CC[C@]43C)[C@@H]12` had an IC50 of 50 nM.

In [12], `C[C@H]1[C@H](C)CC[C@]2(C(=O)O)CC[C@]3(C)C(=CC[C@@H]4[C@@]5(C)CC[C@H](O)C(C)(C)[C@@H]5CC[C@]43C)[C@H]12` [URSOLIC ACID] displayed an EC50 of 10 to 330 nM.

On to `CC(=O)O[C@H]1C(CCC[P+](c2ccccc2)(c2ccccc2)c2ccccc2)C[C@]2(C)[C@H]3CC[C@@H]4[C@H]5[C@H](C(C)C)CC[C@]5(C(=O)OCc5ccccc5)CC[C@@]4(C)[C@]3(C)CC[C@H]2C1(C)C` (some centres undefined), for which the IC50 in series [1] and in series [2] was 1100 to 4700 nM throughout.

In the case of `C=C(/C=N/N=C/c1ccccc1O)[C@@H]1CC[C@]2(C(=O)O)CC[C@]3(C)[C@H](CC[C@@H]4[C@@]5(C)CC[C@H](O)C(C)(C)[C@@H]5CC[C@]43C)[C@@H]12`, the IC50 in series [19] was in the range of 3800 to 4800 nM.

Take `C=C(C)[C@@H]1CC[C@]2(C(=O)N3CCNCC3)CC[C@]3(C)[C@H](CC[C@@H]4[C@@]5(C)CC[C@H](O)C(C)(C)[C@@H]5CC[C@]43C)[C@@H]12`: the IC50 in [19] is 800 nM.

Take `C=C(/C=N/N=C/c1ccccc1[N+](=O)[O-])[C@@H]1CC[C@]2(C(=O)O)CC[C@]3(C)[C@H](CC[C@@H]4[C@@]5(C)CC[C@H](O)C(C)(C)[C@@H]5CC[C@]43C)[C@@H]12`: in [19], the half-maximal inhibitory concentration (IC50) lay in the range of 3800 to 4800 nM.
